Values after ≈ are worked out from the molar mass of the structure shown. Where two headings read alike, the source gives them in different places.
Legend:
[1] = Microsomal (metabolic) stability; assay type: in vitro ADME; conditions: 60 minutes
[2] = test system: K. pneumoniae (strain KP 2146); assay: Standalone MIC against KP 2146; assay type: cell-based, Klebsiella pneumoniae; conditions: 9k alone
[3] = test system: Escherichia coli (EC 25922); assay: Standalone MIC against EC 25922; assay type: cell-based; conditions: 9k alone, read-out: Compound MIC
[4] = test system: Escherichia coli (EC 25922); assay: CLR MIC in combination with 9k against EC 25922; assay type: cell-based
red blood cells = assay: Hemolysis assay; assay type: cell-based; conditions: 1% Triton X as 100% lysis control
AB5075 = assay: Potentiation of azithromycin, erythromycin and rifampin against AB5075; assay type: cell-based, Acinetobacter baumannii
K. pneumoniae 2146 = assay: Combination with RIF against K. pneumoniae 2146; assay type: cell-based, Klebsiella pneumoniae; conditions: K. pneumoniae 2146, compared with the parent dimers
AB 5075 [5] = assay: Colistin MIC in absence or presence of compounds against AB 5075; assay type: cell-based, Acinetobacter baumannii
Description: However, dropping LOS comes with fitness costs such as reduced growth rates, lower virulence, and increased sensitivity towards certain antibiotics.

[6] = test system: A. baumannii strain 5075 (AB5075); assay: Clarithromycin potentiation against AB5075 (CLR MIC in presence of adjuvant); assay type: cell-based, Acinetobacter baumannii; conditions: for CLR MIC / Fold Reduction of CLR MIC / Clarithromycin (CLR) MIC: AB5075
membrane integrity = assay: BacLight assay of membrane integrity; assay type: cell-based; conditions: in comparison to untreated control
Description: We then quantified how compound 9k impacted membrane integrity using the BacLight assay. Compound 9k had essentially no impact on the membrane in comparison to untreated control and produced a −1.2±2.2% change in membrane permeability.

A. baumannii = assay: CLR adjuvant activity with exogenous LOS added to the media; assay type: cell-based, Acinetobacter baumannii; conditions: LOS from AB5075 at 0.2 mg/mL or 0.5 mg/mL
Experimental: First, we examined the impact that addition of MgCl2 had on activity. Divalent cations, such as Mg^2+, are known to stabilize the outer membrane of gram-negative bacteria and the activity of membrane disruptors are known to be muted/abrogated by the addition of such cations. When the media was supplemented with MgCl2 (20 mM final concentration), activity was essentially abolished. As suppression of activity could conceivably originate from either blocking the compound's mechanism of action or simply making the membrane more impermeable that leads to the inability of the compound to penetrate the outer membrane, we next studied the impact that the addition of exogenous LOS had upon activity.

HepG2 cells = assay: Cytotoxicity, XTT assay with HepG2 cells; conditions: read-out: IC50, HepG2 cells; mammalian cell toxicity
P. aeruginosa (PAO1) [7] = assay: CLR MIC in combination with 9k against PAO1; assay type: cell-based, Pseudomonas aeruginosa
[8] = test system: K. pneumoniae (strain KP 2146); assay: CLR MIC in combination with 9k against KP 2146; assay type: cell-based, Klebsiella pneumoniae
[9] = test system: panel of A. baumannii isolates; assay: CLR potentiation against panel of A. baumannii isolates; assay type: cell-based, Acinetobacter baumannii; conditions: 25 AB strains, adjuvant at 10 μM (4.8 μg/mL) or less
Plasma stability = assay type: in vitro ADME; conditions: 4 hours
P. aeruginosa (PAO1) [10] = assay: Standalone MIC against PAO1; assay type: cell-based, Pseudomonas aeruginosa; conditions: 9k alone
[11] = test system: A. baumannii strain 5075 (AB5075); assay: Standalone MIC against AB5075 (compound or antibiotic alone); assay type: cell-based, Acinetobacter baumannii; conditions: Acinetobacter baumannii; compound alone, AB5075
Description: Dimers were first analyzed for standalone toxicity against AB5075.

AB 5075 [12] = conditions: colistin alone, earlier work; cited from earlier work
[13] = AB5075, adjuvant at 7.5 μM (3.6 μg/mL)

Nc1nc(-c2ccc(NC(=O)Nc3cccc(-c4c[nH]c(N)n4)c3F)cc2F)c[nH]1 [Compound 9k, 1-(3-(2-amino-1H-imidazol-4-yl)-2-fluorophenyl)-3-(4-(2-amino-1H-imidazol-4-yl)-3-fluorophenyl)urea]
microsomal stability (in words) [1]: steady concentration over 60 minutes
Compound MIC [2]: >200 µM
MIC [3]: 12.5 µM (≈ 5.13 µg/mL)
fold potentiation of CLR [4]: at least 256 fold
CLR MIC + 9k ([4]; 9k at 2.5 μM): 32 µg/mL
CLR MIC + 9k ([4]; 9k at 3.0 μM): 4 µg/mL
CLR MIC + 9k ([4]; 9k at 3.75 μM): 0.125 µg/mL
lytic effect on red blood cells (in words) (red blood cells; compound at 10 μM in combination with 0.0625 μg/mL clarithromycin): little to no lytic effect
lytic effect on red blood cells (in words) (red blood cells; compound): little to no lytic effect
fold decrease of RIF MIC (AB5075; AB5075, adjuvant at 5 μM (2.4 μg/mL)): 32 fold
fold decrease of AZM MIC (AB5075; [13]): at least 64 fold
fold decrease of ERY MIC (AB5075; [13]): at least 64 fold
fold decrease of RIF MIC (AB5075; AB5075, adjuvant at 10 μM): 32 fold
activity in combination with AZM, ERM and RIF (in words) (AB5075; AB5075, adjuvant at ≤30% their MIC): significant activity
potentiation of RIF (in words) (K. pneumoniae 2146): greater potentiation activity at lower concentrations
potentiation of colistin (in words) (AB 5075 [5]; AB5075): did not potentiate the activity
Colistin MIC (AB 5075 [5]; adjuvant at 30 μM, AB5075): 2 µg/mL
lowest concentration at which the adjuvant suppressed the clarithromycin MIC to 2.0 μg/mL ([6]; AB5075, value in brackets): 0.72 µg/mL
CLR MIC ([6]; adjuvant at 1.5 μM): 2 µg/mL
Fold Reduction of CLR MIC ([6]; adjuvant at 1.5 μM): 16 fold
CLR MIC ([6]; adjuvant at 2.5 μM): 0.125 µg/mL
Fold Reduction of CLR MIC ([6]; adjuvant at 2.5 μM): 256 fold
Clarithromycin (CLR) MIC ([6]; adjuvant at 5 μM): 0.0625 µg/mL
Fold Reduction of CLR MIC ([6]; adjuvant at 5 μM): 512 fold
Clarithromycin (CLR) MIC ([6]; adjuvant at 7.5 μM): ≤0.0625 µg/mL
Fold Reduction of CLR MIC ([6]; adjuvant at 7.5 μM): ≥512 fold
Clarithromycin (CLR) MIC ([6]; adjuvant at 10 μM): ≤0.0625 µg/mL
Fold Reduction of CLR MIC ([6]; adjuvant at 10 μM): ≥512 fold
Clarithromycin (CLR) MIC ([6]; adjuvant at 20 μM): ≤0.0625 µg/mL
Fold Reduction of CLR MIC ([6]; adjuvant at 20 μM): ≥512 fold
Clarithromycin (CLR) MIC ([6]; adjuvant at 30 μM): ≤0.0625 µg/mL
Fold Reduction of CLR MIC ([6]; adjuvant at 30 μM): ≥512 fold
change in membrane permeability (membrane integrity): −1.2±2.2%
CLR adjuvant activity with exogenous LOS (in words) (A. baumannii): no loss of adjuvant activity
IC50 (HepG2 cells): 431 µM
fold potentiation of CLR (P. aeruginosa (PAO1) [7]): at least 256 fold
CLR MIC + 9k (P. aeruginosa (PAO1) [7]; 9k at 20 μM): 4/8
CLR MIC + 9k (P. aeruginosa (PAO1) [7]; 9k at 30 μM): 0.5 µg/mL
fold potentiation of CLR [8]: at least 256 fold
CLR MIC + 9k ([8]; 9k at 7.5 μM): 16 µg/mL
CLR MIC + 9k ([8]; 9k at 10 μM): 2 µg/mL
CLR MIC + 9k ([8]; 9k at 30 μM): 1 µg/mL
lowering of CLR MIC values [9]: at least four-fold
plasma stability (in words) (Plasma stability): steady concentration over 4 hours
Compound MIC (P. aeruginosa (PAO1) [10]): >200 µM
MIC [11]: > 200 µM

colistin [reference compound]
Colistin MIC (AB 5075 [12]): 1 µg/mL
Colistin MIC (AB 5075 [5]; colistin alone): 1 µg/mL
Colistin MIC (AB 5075 [5]; colistin alone, AB 5075): 1 µg/mL

— patent US20260138957A1, “UREA-LINKED 2-AMINOIMIDAZOLE DIMER POTENTIATORS” (UNIVERSITY OF NOTRE DAME DU LAC, priority 2022, published 2026)
